PubChem BioAssay AID540258 (Broad Institute, 2011)
Calls of active or inactive are those of the source.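 How the source made its calls: active means fitted curve reaching 40% activation at or below the top valid dose tested; inconclusive means flat curve at 30 to 70% activation, or poor fit; inactive means the rest.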

Test system: SK-MEL-5 TRPM1 promoter luciferase reporter, 24 h
Experiment: activation of TRPM1 promoter luciferase in melanoma cells – SK-MEL-5 cells, cherry-pick samples, dose response (AID 540258);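 further: potency for activators that raise TRPM1 promoter luciferase signal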

Compound	AC40
O=C(N/N=C\c1cccc(Cl)c1)c1n[nH]c2c1CCCC2	504 nM
Cc1cccnc1NC(=O)Nc1cccc(Cl)c1	2560 nM
COc1ccc(/C=C2\OC(=O)c3c(OC)cccc32)cc1OC	998 nM
COc1ccc(C(=O)/C=C/Nc2cccc(C)n2)cc1OC	977 nM
COc1ccc(-c2cc3nc4ccccc4n3c(N)c2C#N)cc1	1830 nM
c1ccc(-c2cnnc(N3CCCCC3)n2)cc1	992 nM
CC(C)c1ccc(/C=N/NC(=O)C2CCCC2)cc1	2440 nM
CC(=O)N/C(N)=N/c1nc(=O)c2ccccc2s1	5920 nM
Cc1ccc(NCCC(=O)c2cccs2)cc1C	6770 nM
Cc1csc2nc(CSc3nc4ccccc4o3)c(Br)n12	1350 nM
COc1ccc(-c2nn(-c3ccccc3)cc2C#N)cc1	3240 nM
CCCCn1cnc2sc(-c3ccccc3)cc2c1=O	812 nM
Nc1nc(COc2ccc3ccccc3c2)cs1	4970 nM
CCCn1nnc2sc3c(c2c1=O)CCC(C)C3 (stereo not drawn)	3320 nM
COc1ccc2c(c1OC)C(=O)OC2Nc1nc(-c2cc3cc(Br)ccc3oc2=O)cs1 (stereo not drawn)	915 nM
N#Cc1ccc(NC(=O)c2cccs2)nc1	16800 nM
COc1cccc(Nc2ccc(N3CCCCC3)cc2)c1OC	1480 nM
CN(C)c1ccc(CSc2ccccc2)cc1	1830 nM
O=C(Nc1ccc(C(F)(F)F)cc1)c1ccccc1	3480 nM
CN(C)c1ccc(/C=C/c2cccc[n+]2[O-])cc1	14300 nM
COc1nc(C)ccc1-c1noc(-c2ccncc2)n1	2670 nM
c1ccc(COc2ccc(-c3csnn3)cc2)cc1	889 nM
Cc1ccc(C2=NN(S(C)(=O)=O)C(c3cccs3)C2)cc1 (stereo not drawn)	2090 nM

Compound	AC40
O=C(Nc1ccc2c(c1)OCO2)c1cc(-c2ccccc2Cl)on1	2060 nM
Nc1c(-c2ccc(Cl)cc2)cnn1-c1ccccc1	1840 nM
Nc1ccc(-c2nc3ncccc3o2)c(O)c1	5790 nM
Cc1ccc(-c2nn(-c3ccccc3)cc2/C=N/O)cc1	10200 nM
c1ccc2c(Nc3nnc(-c4ccncc4)s3)cccc2c1	4900 nM
COc1cccc2[nH]c(=O)c(-c3ccccc3)cc12	1720 nM
COc1ccc2cc(C(N)=O)c(=Nc3ccccc3)oc2c1	4540 nM
Nc1ccc2oc(-c3cccs3)nc2c1	4760 nM
COc1cc(/C=C/c2noc(-c3ccccc3O)n2)ccc1OC(C)=O	1620 nM
O=C(N/C=C/c1ccccc1)c1ccccc1	551 nM
O=C(c1cc(COc2ccc(F)cc2Cl)on1)N1CCCCCC1	1660 nM
COc1ccc(N2C(=O)c3ccccc3NC23CCCCC3)cc1	1620 nM
CNC(=O)C(=O)Nc1nc(C23CC4CC(CC(C4)C2)C3)cs1	16600 nM
COC(=O)c1ccc(-c2ccc(Cl)cc2)nc1C	475 nM
COc1ccccc1OCc1cc(-c2ccccc2)no1	2280 nM
O=c1c2ccccc2oc2c1ccc1ccccc12	10500 nM
CSc1nc2ccc(NC(=O)c3cccs3)cc2s1	2160 nM
COc1ccccc1C(=O)NCCC(=O)NC1CCC(C)CC1 (stereo not drawn)	3620 nM
c1cnc(Nc2nc(-c3ccc4ccccc4c3)cs2)nc1	516 nM
CCCCNc1c(-c2ccc(-c3cccc(Cl)c3)cc2)nc2ccccn12	5540 nM
COC(=O)Cc1ccc(OCc2ccc(Cl)nc2)cc1	4140 nM
CCCn1nnc(NC(=O)c2ccc(-c3ccccc3)cc2)n1	2700 nM
CC1CCN(c2ccc3c(c2)S(=O)(=O)c2ccccc2C3=O)CC1	442 nM

Compound	AC40
CC(=O)c1sc(NC(=O)c2ccc3c(c2)OCO3)nc1C	1390 nM
O=C(NC1CCCCCC1)c1c(O)c2ccccc2[nH]c1=O	1100 nM
CCc1ccc(-c2cn3nc(-c4ccccc4)cnc3n2)cc1	> 35000 nM (inactive)
COc1ccc(/C=N/Nc2snc(SC)c2C#N)cc1OC	4290 nM
CC(Cc1ccccc1)/[N+]([O-])=C\c1ccc(C(F)(F)F)cc1 (stereo not drawn)	8220 nM
Cc1nc(COC(=O)c2c(C)nn(-c3ccccc3)c2C)cs1	21100 nM
NC(=O)c1cnn(-c2cc(Oc3ccccc3)ncn2)c1N	2880 nM
Nc1ccccc1N=Nc1ccccc1N	27000 nM
COc1ccc(-c2cn(CC3CCCCC3)nn2)cc1	3610 nM
CCc1ccc(OC(=O)Nc2ccccc2)cc1	469 nM
COc1ccc(-c2noc(-c3cccc(OC)c3OC)n2)cc1OC	1330 nM
c1ccc(-c2ccc3[nH]ccc3c2)cc1	14000 nM
Cc1ccc(CSc2ccc(-c3cccs3)nn2)cc1	2710 nM
CSc1ccc(CNc2ccc(Cl)cc2)cc1	5670 nM
Cc1ccn(-c2cccc(-n3ccc(C)n3)n2)n1	834 nM
Clc1ccc(-c2nc(C3CCCCC3)no2)cc1	1230 nM
Nc1ccc(CSc2ccc(Cl)cc2)c(Cl)c1	1980 nM
O=C(Cc1ccccc1F)Nc1ccc(SC(F)F)cc1	1980 nM
FC(F)(F)c1ccnc(Oc2ccc(C3=NCCS3)cc2)c1	654 nM
O=S(=O)(Cc1cc(-c2ccccc2Cl)no1)c1ccccc1	9760 nM
CCN(N=O)c1ccc(C=C2C=Cc3ccccc32)cc1	238 nM
Clc1cnc(N/N=C/c2cccs2)c(Cl)c1	3620 nM
Clc1ccc(-c2cc(CSc3ccccc3)on2)cc1	1450 nM

Compound	AC40
COc1ccccc1NC(=O)Nc1nc2ccc(S(N)(=O)=O)cc2s1	1570 nM
Cc1nn(C(=O)c2cccs2)c(N)c1-c1ccccc1	1380 nM
O=C(N=Nc1c(O)n(Cc2ccccc2)c2ccccc12)c1ccc(O)cc1	860 nM
Cc1ccc2cc(NC(=O)c3ccccc3C)ccc2n1	1690 nM
Clc1ccccc1/C=C/c1nc(-c2cccnc2)no1	1200 nM
CCCCN1C(=O)/C(=C2\SC(N3CCCCC3)=NC2=O)c2ccccc21	3230 nM
CCN1CCN(c2cc3c(nn2)Oc2ccccc2N3C)CC1	5840 nM
CC(C)(C)c1ccc(-c2cc(C(=O)NNC(=O)Nc3ccccc3)c3ccccc3n2)cc1	3320 nM
COc1ccc(NC(C)=O)cc1S(=O)(=O)Nc1ccccc1C(=O)NCCc1ccccc1	> 35000 nM (inactive)
Cc1cc(CNC(=O)c2cc(COc3ccc(F)c(F)c3)on2)nn1C	3370 nM
COc1ccc2c(c1)oc(=O)c1cc(OC)ccc12	3880 nM
c1ccn(-c2ccc(-c3ccn[nH]3)cc2)c1	2300 nM
Cc1[nH]n(-c2cccc(Cl)c2)c(=O)c1C=NCC(C)C	5250 nM
c1ccc(-c2nc3ccccc3[nH]2)cc1	1810 nM
CC(NS(=O)(=O)c1cccc(Cl)c1)C(=O)Nc1ccc(-c2nc3ccccc3s2)cc1 (stereo not drawn)	6960 nM
Clc1ccc(-n2nnc(-c3cccnc3Cl)n2)cn1	3300 nM
Fc1ccc2nc(N3CCCC3)sc2c1	1370 nM
Cc1ccc(/C=N/N2C(=O)c3ccccc3NC2c2ccc(C)cc2)cc1 (stereo not drawn)	20500 nM
Cc1cccc(OCc2nc(-c3nonc3N)no2)c1C	3810 nM
O=C(N=C1N=C2C=CC=CN2Cc2ccccc21)c1ccc(S(=O)(=O)N2CCCC2)cc1	30100 nM
Oc1ccc(/C=N/Nc2cccc(Cl)n2)c(O)c1	584 nM
COc1ccc(OC)c(/C=N/N(C)c2ccccc2)c1	1440 nM
Cc1cc(Cl)ccc1OCc1cn2cccnc2n1	1410 nM

Compound	AC40
CC(=O)c1ccc(N2Cc3ccccc3C2=NC(=O)c2cccs2)cc1	24600 nM
CN(CC(=O)Nc1ccccc1Br)C(=O)c1cc2c(s1)CCCCC2	3400 nM
CCN(CC)c1ccc(-c2nc3cnccc3n2C)cc1	1640 nM
CC1(C)CNC(=O)c2sc(NC(=O)c3ccccc3)nc2C1	21900 nM
Cc1ccccc1-c1nc(Cc2ccccc2)no1	2780 nM
CCc1ccc(NC(=O)c2n[nH]c(=O)c3ccccc23)cc1	1100 nM
CCn1c(C(=O)OC)cc2c1ccn2-c1ccc(F)cc1	2940 nM
O=C(Nc1ccc(Cl)c(Cl)c1)Nc1ccccc1O	982 nM
O=C(NC1CCCC1)c1cc(-c2ccc(Cl)cc2Cl)on1	393 nM
COC(=O)/C(=C1\Oc2ccc(C(C)(C)C)cc2S1)C(F)(F)F	3810 nM
CCCc1cc2c(=O)c(-c3ccccn3)coc2cc1OC	1820 nM
N/C(=N\OC(=O)C12CC3CC(CC(C3)C1)C2)c1ccccn1	8230 nM
COc1ccc(NC(=O)c2ccc3[nH]c(C)c(C)c3c2)cc1	22400 nM
CC(=O)c1sc(N/N=C/c2cccc(O)c2)nc1C	2670 nM
Cc1ccc(O)c(-n2nc3ccccc3n2)c1	1210 nM
CCn1c(C)nc2cc(C(=O)N/N=C(\C)c3ccccc3O)ccc21	3480 nM
CCCC(=O)Nc1nc(-c2ccccc2)ns1	4230 nM
COc1ccc(-c2nnn(Cc3ccccc3F)n2)cc1	2140 nM
c1ccc2oc(-c3ccc4nc[nH]c4c3)nc2c1	866 nM
CCCCc1ccc(Nc2ncnc3nc[nH]c23)cc1	3370 nM
CC1CCc2nc(NC(=O)Cc3cccs3)sc2C1 (stereo not drawn)	2630 nM
Cc1ccn2c(C(=O)c3ccc(Cl)cc3)cnc2c1	803 nM
O=c1oc(-c2cccs2)nc2sc3c(c12)CCCCC3	6420 nM

Compound	AC40
COc1ccc(Nc2nc(N)c3ccccc3n2)c(OC)c1	2400 nM
c1csc(CSc2nc3ccccc3s2)c1	1090 nM
O=C(NCc1ccccn1)Nc1ccc(Br)cc1Cl	14300 nM
COc1ccc(NC(=S)c2ccccc2)cc1	3970 nM
COc1ccc(NC(=O)C2Cc3ccccc3O/C2=N\O)cc1 (stereo not drawn)	17000 nM
CCn1c(/C=C/c2c[nH]c3ccccc23)nc2ccccc2c1=O	583 nM
C=CCN=C1S/C(=C\c2ccc(N(C)C)cc2)C(=O)N1CC=C	21500 nM
c1ccc(CSCc2cn3ccsc3n2)cc1	11200 nM
CCCN(CCC)c1ncnc2c1cnn2-c1ccc(OC)cc1	256 nM
Cc1ccc(NC(=O)c2sc3nc(C)cc(C)c3c2N)cc1	205 nM
Nc1c(C(=O)C2CC2)sc2nc3c(cc12)CCC3	1920 nM
Cc1cccc2nc(COc3ccc4ccccc4c3Br)cn12	1270 nM
CC(C)(C)c1ccc(SCCc2ccccn2)cc1	1980 nM
CCCCNc1ccc2c(c1)C1CC2CCN1C(=O)OCc1ccccc1 (stereo not drawn)	3320 nM
Cc1nc(-c2ccc(NC(=O)c3ccccc3Br)cc2)cs1	1570 nM
Brc1ccc(OCc2cn3ccccc3n2)cc1	592 nM
Cc1cccc(-c2cc(N)n(-c3ccccc3)n2)c1	712 nM
Cc1cc2c([nH]c3ccccc32)c2c1OC(C)(C)C=C2	3800 nM
